Laboratory results: patent US8058285B2, “Substituted pyrido [3′, 2′: 4, 5] thieno [3, 2-D] pyrimidines and pyrido [3′, 2′: 4, 5] furo [3, 2-D] pyrimidines used as inhibitors of the PDE-4 and/or the release of TNF-ALPHA” (The Medicines Company (Leipzig) GmbH, priority 2004, dated 2011)
Counter-ions that a name gives are not always drawn.

These compounds were tested against T1, PDE-4A (Homo sapiens, UniProt P27815) (assay: PDE-4A inhibitory assay (SPA)). Conditions: not given.
T1 construct: PDE-4A catalytic domain comprising amino acids 342-704; made in house; host or cells: Escherichia coli
Assay type: biochemical
Outline: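 Human recombinant PDE-4A catalytic domain (aa 342-704), E. coli-expressed. SPA with 1 μM [^3H]-cAMP substrate in 100 mM Tris-HCl pH 7.5, 5 mM MgCl2, 1% DMSO; 20 min at 22° C. Non-specific activity with 100 μM rolipram subtracted.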

T1 sequence (P27815 342-704): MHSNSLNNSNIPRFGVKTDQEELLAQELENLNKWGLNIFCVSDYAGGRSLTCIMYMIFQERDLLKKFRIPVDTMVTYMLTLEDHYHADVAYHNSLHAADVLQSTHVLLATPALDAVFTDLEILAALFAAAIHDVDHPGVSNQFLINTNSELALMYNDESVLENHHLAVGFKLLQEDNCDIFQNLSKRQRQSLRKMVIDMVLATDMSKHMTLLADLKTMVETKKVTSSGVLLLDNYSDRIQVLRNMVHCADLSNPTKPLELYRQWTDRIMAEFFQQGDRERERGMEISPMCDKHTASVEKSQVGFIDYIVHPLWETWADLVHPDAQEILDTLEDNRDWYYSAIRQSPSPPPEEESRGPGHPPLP

IC50 | Compound
2 to 50 nM | CCOc1nc(N2CCNCC2)nc2c1sc1nc(-c3ccc(SC)cc3)cc(C)c12 [4-Ethoxy-9-methyl-7-(4-methylthio-phenyl)-2-piperazin-1-yl-pyrido[3′,2′:4,5]thieno[3,2-d]pyrimidine]
< 2 nM | CCOc1nc(N2CCNCC2)nc2c1sc1nc(-c3ccc(OC)cc3)cc(CC)c12 [4-Ethoxy-9-ethyl-7-(4-methoxyphenyl)-2-(piperazin-1-yl)-pyrido[3′,2′:4,5]thieno[3,2-d]pyrimidine]
< 2 nM | CCOc1ccc(-c2cc(CC)c3c(n2)sc2c(N4CCNCC4)nc(OCC)nc23)cc1 [2-Ethoxy-7-(4-ethoxy-phenyl)-9-ethyl-4-(piperazin-1-yl)-pyrido[3′,2′:4,5]thieno[3,2-d]pyrimidine]
2 to 50 nM | CCOc1nc(N2CCNCC2)c2sc3nc(-c4ccc5c(c4)OCO5)cc(C)c3c2n1 [2-Ethoxy-9-methyl-7-(3,4-methylenedioxyphenyl)-4-piperazin-1-yl-pyrido[3′,2′:4,5]thieno-[3,2-d]pyrimidine]
2 to 50 nM | CCOc1nc(N2CCNCC2)nc2c1sc1nc(-c3ccc(C(C)(C)C)cc3)nc(C)c12 [7-(4-tert-Butyl-phenyl)-4-ethoxy-9-methyl-2-piperazin-1-yl-thieno[2,3-d:4,5-d′]dipyrimidine]
< 2 nM | CCOc1nc(N2CCNCC2)nc2c1sc1nc(-c3ccc(-c4cc(OC)c(OC)c(OC)c4)cc3)nc(C)c12 [4-Ethoxy-9-methyl-2-piperazin-1-yl-7-(3′,4′,5′-trimethoxybiphen-4-yl)-thieno[2,3-d:4,5-d′]dipyrimidine]
2 to 50 nM | CCOc1nc(N2CCNCC2)nc2c1sc1nc(C)cc(-c3ccccc3)c12 [4-Ethoxy-7-methyl-9-phenyl-2-(piperazin-1-yl)-pyrido[3′,2′:4,5]thieno[3,2-d]pyrimidine]
< 2 nM | CCOc1nc(N2CCNCC2)nc2c1sc1nc(-c3ccc(N4CCCCC4)cc3)cc(C(F)(F)F)c12 [4-Ethoxy-2-(piperazin-1-yl)-7-(4-(piperidin-1-yl)phenyl)-9-trifluoromethyl-pyrido[3′,2′:4,5]thieno[3,2-d]pyrimidine]
< 2 nM | CCOc1nc(N2CCNCC2)nc2c1sc1nc3c(c(C(F)(F)F)c12)CCc1cc(OC)ccc1-3 [5,6-Dihydro-11-ethoxy-3′-methoxy-9-piperazin-1-yl-7-trifluoromethyl-benzo[h]pyrimido[4′,5′:4,5]thieno[2,3-b]quinoline]
< 2 nM | CCOc1nc(N2CCNCC2)nc2c1sc1nc(-c3ccc(-c4ccc(OC)c(OC)c4)cc3)nc(C)c12 [7-(3′,4′-Dimethoxybiphen-4-yl)-4-ethoxy-9-methyl-2-piperazin-1-yl-thieno[2,3-d:4,5-d′]dipyrimidine]
2 to 50 nM | CCOc1nc(N2CCNCC2)nc2c1sc1nc(-c3ccc(C(O)c4cccnc4)cc3)nc(C)c12 (stereo not drawn) [4-Ethoxy-7-(4-[hydroxy{3-pyridyl}methyl]-phenyl)-9-methyl-2-piperazin-1-yl-thieno[2,3-d:4,5-d′]dipyrimidine]
2 to 50 nM | CCOc1nc(N2CCNCC2)nc2c1sc1nc(-c3ccc(Br)cc3)cc(C)c12 [7-(4-Bromo-phenyl)-4-ethoxy-9-methyl-2-(piperazin-1-yl)-pyrido[3′,2′:4,5]thieno[3,2-d]pyrimidine]
2 to 50 nM | Cc1cc(-c2ccccc2)nc2sc3c(N4CCNCC4)nc(OCC(F)F)nc3c12 [2-(2,2-Difluoro-ethoxy)-9-methyl-7-phenyl-4-(piperazin-1-yl)-pyrido[3′,2′:4,5]thieno[3,2-d]pyrimidine]
< 2 nM | CCOc1nc(N2CCNCC2)nc2c1sc1nc(-c3cccc([N+](=O)[O-])c3)cc(C(F)(F)F)c12 [4-Ethoxy-7-(3-nitro-phenyl)-2-piperazin-1-yl-9-trifluoromethyl-pyrido[3′,2′:4,5]thieno[3,2-d]pyrimidine]
< 2 nM | CCOc1nc(N2CCNCC2)nc2c1sc1nc(-c3ccc4c(c3)OCCO4)cc(C(F)(F)F)c12 [7-(2,3-Dihydrobenzo[b][1,4]dioxin-6-yl)-4-ethoxy-2-(piperazin-1-yl)-9-trifluoromethyl-pyrido[3′,2′:4,5]thieno[3,2-d]pyrimidine]
2 to 50 nM | CCCc1nc(N2CCNCC2)c2sc3nc(-c4ccc(OC)c(OC)c4)cc(C)c3c2n1 [7-(3,4-Dimethoxy-phenyl)-9-methyl-4-(piperazin-1-yl)-2-n-propyl-pyrido[3′,2′:4,5]thieno[3,2-d]pyrimidine]

IC50 | Compound
2 to 50 nM | Cc1cc(-c2ccccc2)nc2sc3c(OC(C)C)nc(N4CCNCC4)nc3c12 [9-Methyl-7-phenyl-2-(piperazin-1-yl)-4-iso-propoxy-pyrido[3′,2′:4,5]thieno[3,2-d]pyrimidine]
2 to 50 nM | CCOc1nc(N2CCNCC2)nc2c1sc1nc(N3CCOCC3)cc(C)c12 [4-Ethoxy-9-methyl-7-morpholino-2-(piperazin-1-yl)-pyrido[3′,2′:4,5]thieno[3,2-d]pyrimidine]
2 to 50 nM | CCCc1nc(N2CCNCC2)c2sc3nc(-c4ccccc4)cc(C)c3c2n1 [9-Methyl-7-phenyl-4-(piperazin-1-yl)-2-n-propyl-pyrido[3′,2′:4,5]thieno[3,2-d]pyrimidine]
< 2 nM | CCOc1nc(N2CCNCC2)nc2c1sc1nc(-c3ccc(C)cc3)cc(CC)c12 [4-Ethoxy-9-ethyl-7-(4-methyl-phenyl)-2-(piperazin-1-yl)-pyrido[3′,2′:4,5]thieno[3,2-d]pyrimidine]
2 to 50 nM | CCOc1nc(N2CCNCC2)nc2c1sc1nc(-c3ccc(OC)c(OC)c3)cc(C)c12 [4-Ethoxy-7-(3,4-dimethoxy-phenyl)-9-methyl-2-(piperazin-1-yl)-pyrido[3′,2′:4,5]thieno-[3,2-d]pyrimidine]
2 to 50 nM | CCOc1nc(N2CCNCC2)nc2c1sc1nc(-c3ccc4c(c3)OCO4)cc(C)c12 [4-Ethoxy-9-methyl-7-(3,4-methylenedioxyphenyl)-2-piperazin-1-yl-pyrido[3′,2′:4,5]thieno-[3,2-d]pyrimidine]
2 to 50 nM | CCOc1nc(N2CCNCC2)nc2c1sc1nc(N3CCOCC3)c3c(c12)CCN(C)C3 [8-Ethoxy-3-methyl-5-morpholino-10-piperazin-1-yl-pyrimido[4′,5′:4,5]thieno[2,7]-1,2,3,4-tetrahydro-naphthyridine]
< 2 nM | CCOc1nc(N2CCNCC2)nc2c1sc1nc(-c3ccc(Br)cc3)cc(CC)c12 [7-(4-Bromo-phenyl)-4-ethoxy-9-ethyl-2-(piperazin-1-yl)-pyrido[3′,2′:4,5]thieno[3,2-d]pyrimidine]
< 2 nM | CCOc1nc(N2CCNCC2)nc2c1sc1nc(-c3ccc(-c4ccc(C(=O)OC)cc4N)cc3)nc(C)c12 [2′-Amino-4-(4-ethoxy-9-methyl-2-piperazin-1-yl-thieno[2,3-d:4,5-d′]dipyrimidin-7-yl)-biphenyl-4′-carboxylic acid methyl ester]
2 to 50 nM | CCOc1nc(N2CCNCC2)nc2c1sc1nc(N3CCN(c4ccccc4)CC3)cc(CC)c12 [4-Ethoxy-9-ethyl-7-(4-phenyl-piperazin-1-yl)-2-piperazin-1-yl-pyrido[3′,2′:4,5]thieno[3,2-d]pyrimidine]
< 2 nM | CCOc1nc(N2CCNCC2)nc2c1sc1nc(-c3ccc(-c4ccco4)cc3)nc(C)c12 [4-Ethoxy-7-(4-[2-furyl]-phenyl)-9-methyl-2-piperazin-1-yl-thieno[2,3-d:4,5-d′]dipyrimidine]
< 2 nM | CCOc1nc(N2CCNCC2)nc2c1sc1nc(-c3ccc(-c4c(C)noc4C)cc3)nc(C)c12 [7-(4-[3,5-Dimethyl-isoxazol-4-yl]-phenyl)-4-ethoxy-9-methyl-2-piperazin-1-yl-thieno[2,3-d:4,5-d′]dipyrimidine]
2 to 50 nM | CCOc1nc(N2CCNCC2)nc2c1sc1nc(N3CCCCC3)c3c(c12)CCCC3 [8-Ethoxy-5-piperidino-10-piperazin-1-yl-pyrimido[4′,5′:4,5]thieno[2,3-c]-1,2,3,4-tetrahydro-isoquinoline-hydrochloride]
2 to 50 nM | CCOc1nc(N2CCNCC2)nc2c1sc1nc(-c3ccccn3)cc(C(F)(F)F)c12 [4-Ethoxy-2-piperazin-1-yl-7-(2-pyridyl)-9-trifluoromethyl-pyrido[3′,2′:4,5]thieno[3,2-d]pyrimidine]
2 to 50 nM | CCOc1nc(N2CCNCC2)nc2c1sc1nc(-c3ccc(Br)cc3)nc(C)c12 [7-(4-Bromo-phenyl)-4-ethoxy-9-methyl-2-piperazin-1-yl-thieno[2,3-d:4,5-d′]dipyrimidine]

What follows are compounds tested on TNFα release (assay: LPS-induced TNFα release in diluted human blood (ELISA)). Conditions: LPS 1 μg/ml, human blood diluted 1:5, 24 h; read-out: IC50 value in the TNFα inhibitory assay.
Assay type: cell-based
Source text: Isolated leukocytes can be stimulated for the release of cytokines in different ways. Lipopolysaccharides (LPS) are a stimulus for the investigation of the TNFα release. LPS is part of bacterial cell walls and is released when the bacteria are killed (by antibiotics or the natural immune system). LPS stimulates in particular the activity of phagocytizing leukocytes (tissue macrophages, granulocytes, monocytes) and causes the infiltration of leukocytes from the peripheral blood into the affected tissue. A cytokine of special significance for these mechanisms is TNFα which is secreted in large amounts by the affected cells. The main source are here monocytes and macrophages. TNFα initiates and prolongs the inflammatory process in cooperation with other mediators.
For the investigation of the effect on the LPS-induced TNFα release a method was used which was described by Marx, D., Tassabehji, M., Heer, S., Hüttenbrink, K.-B., and I. Szelenyi, Pulmonary Pharmacology & Therapeutics (2002) 15, 7-15. The method is briefly: Human blood was taken from various donors, rendered incoagulable by the addition of 10 mM Na citrate and diluted 1:5 with RPMI 1640 cell culture medium. The test substances were added to the blood samples at various concentrations. 15 min later, the leukocytes were stimulated by the addition of lipopolysaccharides (LPS) from Salmonella abortus equi at a final concentration of 1 μg/ml. After the incubation of the test batches at 37° C. and under 5% CO2 in a water-saturated air for 24 h, the blood was centrifuged and the TNFα concentration in the cell-free supernatant was accurately measured using a purchasable ELISA (BD Biosciences) according to the manufacturer's instructions.

IC50 | Compound
< 2000 nM | CCOc1nc(N2CCNCC2)nc2c1sc1nc(-c3ccc(C(N)=O)cc3)cc(C(F)(F)F)c12 [4-(4-Ethoxy-9-trifluoromethyl-2-piperazin-1-yl-pyrido[3′,2′:4,5]thieno[3,2-d]pyrimidin-7-yl)-benzamide trifluoroacetate]
< 2000 nM | CCOc1nc(N2CCNCC2)c2sc3nc(C)cc(-c4ccccc4)c3c2n1 [2-Ethoxy-7-methyl-9-phenyl-4-(piperazin-1-yl)-pyrido[3′,2′:4,5]thieno[3,2-d]pyrimidine-hydrochloride]
